By melting point is commonly meant the temperature of the solid-liquid transition.

Each structure is given as a SMILES string.

Regarding `COC(=O)c1cccc(C=NO)c1`, the melting point is 107 to 108 °C.

In turn, `N#CCc1cc2cc(Br)ccc2s1` showed a melting point of 94 to 96 °C. Turning to `COC(=O)C1C(c2cccc([N+](=O)[O-])c2)C(C(=O)OC(C)C)=C(C)NC1(O)c1ccccc1` (stereo not drawn), the melting point was in the range of 134 to 135 °C. On to `COc1ccc(C2=NCc3nnc(CN(C)C)n3-c3ccc(Cl)cc32)cc1`, for which the melting point lay in the range of 224 to 225 °C. With `NC(=O)COc1ccc(CN2C(=O)C3(COc4cc5c(cc43)OCCO5)c3ccccc32)cc1` (stereo not drawn), the melting point lay in the range of 225 to 227 °C.

Molecule `COc1cccc(-n2nc(-c3ccccc3)c3cccnc32)c1` had a melting point of 102 to 105 °C. The same measure for `COc1ccc2c(c1)C(=O)N(c1ccc3c(c1)cc(C)n3C)C2`: 209 to 213 °C. In the case of `COCn1ccc(C(=O)c2ccc(Cc3ccc(F)cc3)o2)c(O)c1=O` it was 128 to 130 °C; in that of `CCCCCCCCC/C=C(\C)C(=O)O`, 28 to 31 °C; in that of `COC(=O)c1ccc2cc(C(=O)c3ccc4c(c3)C3(C)C5(C)CCC(C5)C3(C)O4)ccc2c1` (stereo not drawn), 146 °C. In the case of `O=C(c1cc(NS(=O)(=O)c2ccccc2)ccn1)N(O)Cc1ccccc1`, the melting point lay in the range of 175 to 180 °C. The same measure for `COC1CC2CCC1C2Nc1ccc([N+](=O)[O-])c2onnc12` (stereo not drawn): 178 to 180 °C; for `CC(=O)Nc1ccc(-c2nc3c(s2)C(=O)c2ccccc2C3=O)o1`: greater than 260 °C. In the case of `N#Cc1cc(CCNc2ncnc3c(F)ccc(F)c23)ccc1Oc1cc(C(F)(F)F)ccn1` it was 157 to 159 °C. `CCN(Cc1csc(C(C)C)n1)C(=O)N[C@H](C(=O)N[C@@H](Cc1ccccc1)C[C@H](O)[C@H](Cc1ccccc1)NC(=O)OCc1cncs1)C(C)C` had a melting point of 58 to 60 °C.

`CC1(CCCOc2ccc([N+](=O)[O-])c(C=C3NC(=O)NC3=O)c2)OCCO1` returned a melting point of 175 to 180 °C. Consider `Cc1ccc(Cn2c(=O)cc(C(C)C(=O)Oc3ccccc3)c3cc(C)ccc32)cc1` (stereo not drawn), for which the melting point is 111 to 113 °C. `Cn1nnc2c1C(=O)C(Cl)=C(Cl)C2=O` displayed a melting point of 254 to 255 °C. In the case of `CCCc1cc(NCc2ccc3c(c2)OCO3)nc(SCC(N)=NO)n1` it was 145 to 147 °C; in that of `O=C(O)CCC[C@@H](O)[C@@H](CCc1ccccc1)S(=O)(=O)c1ccccc1` (relative stereo), 100 to 102 °C.

The molecule `CCn1c(C(=O)N(C)Cc2cc(C(F)(F)F)cc(C(F)(F)F)c2)c(-c2ccccc2)c2ccccc2c1=O` yielded a melting point of 105 to 106 °C. In the case of `CCCN(Cc1ccc(-c2ccccc2-c2nnn[nH]2)cc1)c1ncccc1C(=O)OC` it was 146 to 147 °C. `CONC(=O)Nc1ccc(-c2nc3n(Cc4c(F)cccc4F)cc(C(=O)OC(C)C)c(=O)n3c2CN(C)Cc2ccccc2)cc1` came in with a melting point of 156 to 158 °C. In the case of `Nc1cccc(Sc2cccc3c2C(=O)c2cccc(Sc4cccc(N)c4)c2C3=O)c1` it was 292 to 293 °C. Turning to `O=Cc1c[nH]c2c1ccc1c3ccccc3[nH]c12`, the melting point is greater than 290 °C.

For the molecule `CCCCc1nc2c(N)nc3cc(-c4ccccc4)ccc3c2n1CC(C)C`, the melting point was greater than 250 °C. For the molecule `CCCCCCCCCCCCCCCCOCC(CO)OCOC(c1ccccc1)(c1ccccc1)c1ccccc1` (stereo not drawn), the melting point stood at 38 °C.

Consider `COc1ccccc1C=Cc1ccccc1`, for which the melting point was 69 to 70 °C. The same measure for `O=C(O)c1cn(C2CC2)c2cc(Cl)ncc2c1=O`: 226 to 227 °C; for `CN1C[C@H](CCCl)Oc2ncccc2C1=O`: 61 to 62 °C; for `CC(=O)N1CCC(NC(=O)Nc2ccc(F)cc2)CC1`: 146 to 148 °C. `CS(=O)(=O)N1CCC2OC2CC1` (stereo not drawn) displayed a melting point of 133 to 134 °C.

For the molecule `NS(=O)(=O)c1cc(OC(F)F)ccc1OC(F)F`, the melting point fell in the range of 73 to 74 °C.

As for `O=C(O)C1=CS[C@@H]2[C@@H]([C@H](O)c3cn4c(n3)SCC4)C(=O)N12`, the melting point came to 152 °C.

On to `O=C(O)c1cnc2c(NC(=O)c3c(Cl)cccc3Cl)cccc2c1`, for which the melting point is greater than 250 °C. Take `COc1cc2nc(N3CCN(c4ccc(Cl)nn4)CC3)nc(N)c2cc1OC`: the melting point was in the range of 269 to 270 °C. For `Cc1ncc2cc(Cl)nc(Cl)n12`, the melting point lay in the range of 134 to 135 °C. In turn, `COC(=O)c1ccc(NC(=O)c2cc(C(C)C)c(C(C)C)s2)cc1` returned a melting point of 180 to 182 °C.

For `CCOC(=O)c1c(N)nn(-c2c(Cl)cc(C(F)(F)F)cc2Cl)c1N`, the melting point is 196 to 197 °C.

In turn, `CCCCN1C(=O)NC(Cc2cc(OC)c(OC)cc2OC)C1=O` (stereo not drawn) had a melting point of 122 °C. In the case of `CC(C)c1cccc(C(C)C)c1NC(=O)NCC1CCCc2ccccc21` (stereo not drawn) it was 189 to 190 °C.

As for `NNC(=O)c1cc2ccncc2c2sc3ccccc3c12`, the melting point lay in the range of 285 to 289 °C. Consider `CCCCCCCCC#CCC#CCC#CCSCC(=O)NCCO`, for which the melting point came out at 77 °C.

Regarding `Fc1ccc(Nc2cc(Cl)nc(NN=Cc3ccc(OC(F)(F)F)cc3)n2)cc1C(F)(F)F`, the melting point was in the range of 162 to 164 °C. The same measure for `CCOC(C)O[C@H]1C(=O)N[C@H]1c1ccccc1` (stereo partly drawn): 78 to 80 °C; for `CN(C)C(=S)Nc1ccccc1N1CCOCC1`: 150 to 152 °C. `CCOc1cc(Br)ccc1C=NNC(=N)NN=Cc1ccc(Br)cc1OCC` displayed a melting point of 195 to 197 °C.

With `S=c1[nH]ccn1C1CCc2ccccc2C1` (stereo not drawn), the melting point is 233 to 234 °C. The same measure for `N[C@H]1CC[C@@H](n2ccc(-c3ccc(F)cc3)c2-c2ccncc2)CC1`: 163 to 164 °C. Take `Cc1ccc(-n2nc(C#N)cc2-c2ccc(S(C)(=O)=O)cc2)cc1Br`: the melting point is 179 to 180 °C. In the case of `CC(C)c1cccc(C(C)C)c1NC(=O)CN1C(=O)N(c2ccc(S(C)(=O)=O)cc2)C2(CCCCC2)C1=O` it was 250 °C; in that of `CC(C)(C)c1ccc(Sc2ccc(C=C3SC(=S)NC3=O)cc2)cc1`, 211 to 212 °C.

Consider `CNN(NC)C(=O)Nc1cccc2c1C(=O)c1c-2n[nH]c1-c1cc(C)sc1C`, for which the melting point was 252 °C. The same measure for `C1=C(c2cccs2)NN=C(c2cccs2)C1c1cccs1` (stereo not drawn): 168 °C. In the case of `CC(=O)OCC1OC(OC2OC(CO)C(O)C(O)C2O)C(OC(C)=O)C(OC(C)=O)C1OC(C)=O` (stereo not drawn) it was 120 °C. The same measure for `Cn1c(-c2ccccc2)c(CCCl)sc1=S`: 116 °C; for `O=C(Nc1ccc2[nH]c(=O)oc2c1)C(=O)N1CCC(Cc2ccc(F)c(F)c2)CC1`: 233 °C; for `Cc1ccc2c(c1)C(=O)C1=NCCCN12`: 128 to 130 °C. In turn, `O=C1CN(c2ccccc2)C1=O` yielded a melting point of 115 to 117 °C.

Molecule `CCOC(=O)c1c(-c2ccccc2C)c2cc3c(cc2n(C)c1=O)CCC3` showed a melting point of 134 to 135 °C. For the molecule `O=C(NCCN1CCC(O)(c2ccc(Cl)cc2)CC1)c1ccccc1`, the melting point was 169 °C. With `CC(C)CNC(=O)c1sc(Oc2ccc3c(c2)OCO3)c2c1CCc1cnn(C)c1-2`, the melting point is 155 to 157 °C.

Take `Cc1ccc(-c2[nH]c(-c3ccccc3)nc2C(=O)Nc2nc(-c3ccccc3)cs2)cc1`: the melting point fell in the range of 274 to 276 °C.

The record behind these values is a melting point compilation (Tetko et al.; mined from patent text by program, amines drawn as free bases though some values may be those of a salt).
